In brackets after ≈: the same amount, converted by molar mass.
Key:
Format in all cases: cell-based
[1] = test system: Haemophilis influenzae DILL AMP R; test: In vitro agar dilution MIC, organism code WW; conditions: unit assumed
Method in brief: (§1)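 Plates are incubated for 20 to 24 hours at 35-37° C after replicator inoculation onto BHI agar containing successive compound dilutions. Slow-growing strains such as Streptococcus get a 1:10 inoculum, others 1:100. The endpoint counts slight haze or sparsely isolated colonies as inhibition.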

[2] = test system: Streptococcus pyogenes PIU 2548; test: In vitro agar dilution MIC, organism code NN; conditions: unit assumed
Method in brief: as §1

[3] = test system: Staphylococcus aureus A-5278; test: In vitro agar dilution MIC, organism code CC; conditions: Table 1B, unit assumed
Method in brief: as §1

[4] = test system: Staphylococcus aureus ATCC 6538P; test: In vitro agar dilution MIC, organism code AA; conditions: Table 1B, unit assumed
Method in brief: as §1

[5] = test system: Streptococcus pyogenes 930; test: In vitro agar dilution MIC, organism code MM; conditions: unit assumed
Method in brief: as §1

[6] = test system: Nocardia asteroides ATCC 9970; test: In vitro agar dilution MIC, organism code VV; conditions: Table 1B, in µg/mL (unit assumed)
Method in brief: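 Agar plates of BHI carried graded compound concentrations and were inoculated with bacterial suspensions diluted 1:100, or 1:10 for slow-growing streptococci. After 20 to 24 hours of incubation at 35-37° C, the minimum inhibitory concentration was scored visually against a compound-free plate.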

[7] = test system: Micrococcus luteus ATCC 4698; test: In vitro agar dilution MIC, organism code PP; conditions: Table 1B, in µg/mL (unit assumed)
Method in brief: as §1

[8] = test system: Streptococcus agalactiae CMX 508; test: In vitro agar dilution MIC, organism code KK; conditions: Table 1B, unit assumed
Method in brief: as §1

[9] = test system: Micrococcus luteus ATCC 9341; test: In vitro agar dilution MIC, organism code OO; conditions: Table 1B, unit assumed
Method in brief: as §1

Candida albicans CCH 442 = test: In vitro agar dilution MIC, organism code TT; conditions: Table 1B, unit assumed
Method in brief: as §1

[10] = test system: Streptococcus pyogenes EES61; test: In vitro agar dilution MIC, organism code LL; conditions: unit assumed
Method in brief: as §1

[11] = test system: Streptococcus pneumoniae GYR 1171; test: In vitro agar dilution MIC, organism code YY; conditions: Table 1B, unit assumed
Method in brief: as §1

Escherichia coli SS = test: In vitro agar dilution MIC, organism code RR; conditions: Table 1B, in µg/mL (unit assumed)
Method in brief: as §1

[12] = test system: Staphylococcus aureus NCTC10649M; test: In vitro agar dilution MIC, organism code EE; conditions: Table 1B, unit assumed
Method in brief: as §1

[13] = test system: Streptococcus bovis A-5169; test: In vitro agar dilution MIC, organism code JJ; conditions: Table 1B, unit assumed
Method in brief: as §1

[14] = test system: Enterococcus faecium ATCC 8043; test: In vitro agar dilution MIC, organism code II; conditions: Table 1B, unit assumed
Method in brief: as §1

Escherichia coli DC-2 = test: In vitro agar dilution MIC, organism code SS; conditions: Table 1B, unit assumed
Method in brief: as §1

[15] = test system: Streptococcus pneumoniae ATCC 6303; test: In vitro agar dilution MIC, organism code XX; conditions: unit assumed
Method in brief: as §1

[16] = test system: Staphylococcus aureus CMX 553; test: In vitro agar dilution MIC, organism code FF; conditions: Table 1B, unit assumed
Method in brief: as §1

[17] = test system: Streptococcus pneumoniae 5649; test: In vitro agar dilution MIC, organism code ZZA; conditions: unit assumed
Method in brief: as §1

[18] = test system: Mycobacterium smegmatis ATCC 114; test: In vitro agar dilution MIC, organism code UU; conditions: Table 1B, in µg/mL (unit assumed)
Method in brief: as §1

[19] = test system: Staphylococcus aureus CMX 642A; test: In vitro agar dilution MIC, organism code DD; conditions: Table 1B, unit assumed
Method in brief: as §1

[20] = test system: Staphylococcus aureus A5177; test: In vitro agar dilution MIC, organism code BB; conditions: Table 1B, in µg/mL (unit assumed)
Method in brief: as §1

Escherichia coli JUHL = test: In vitro agar dilution MIC, organism code QQ; conditions: Table 1B, in µg/mL (unit assumed)
Method in brief: as §1

[21] = test system: Staphylococcus epidermidis 3519; test: In vitro agar dilution MIC, organism code HH; conditions: Table 1B, in µg/mL (unit assumed)
Method in brief: as §1

[22] = test system: Streptococcus pneumoniae 5979; test: In vitro agar dilution MIC, organism code ZZ; conditions: unit assumed
Method in brief: as §1

[23] = test system: Staphylococcus aureus 1775; test: In vitro agar dilution MIC, organism code GG; conditions: Table 1B, unit assumed
Method in brief: as §1

CC[C@H]1OC(=O)C(C)(F)C(=O)[C@H](C)[C@@H](O[C@@H]2O[C@H](C)C[C@H](N(C)C)[C@H]2O)[C@](C)(OCC#CC(=O)c2cccs2)C[C@@H](C)C(=O)[C@H](C)[C@H]2NC(=O)O[C@@]21C (stereo partly shown) [Example 24]
MIC ([1]; Table 1B): 16 mg/L (≈ 20.9 µM) | MIC ([2]; Table 1B): 3.1 mg/L (≈ 4.05 µM) | MIC [3]: > 100 mg/L | MIC [4]: 1.56 mg/L (≈ 2.04 µM) | MIC ([5]; Table 1B): 100 mg/L (≈ 131 µM) | MIC [6]: 0.78 | MIC [7]: 0.78 | MIC [8]: 0.39 mg/L (≈ 0.51 µM) | MIC [9]: 0.2 mg/L (≈ 0.261 µM) | MIC (Candida albicans CCH 442): > 100 mg/L | MIC ([10]; Table 1B): 0.39 mg/L (≈ 0.51 µM) | MIC [11]: 0.03 mg/L (≈ 0.0392 µM) | MIC (Escherichia coli SS): 3.1 | MIC [12]: 1.56 mg/L (≈ 2.04 µM) | MIC [13]: 0.2 mg/L (≈ 0.261 µM) | MIC [14]: 0.39 mg/L (≈ 0.51 µM) | MIC (Escherichia coli DC-2): > 100 mg/L | MIC ([15]; Table 1B): 0.06 mg/L (≈ 0.0784 µM) | MIC [16]: 1.56 mg/L (≈ 2.04 µM) | MIC ([17]; Table 1B): 1 mg/L (≈ 1.31 µM) | MIC [18]: 3.1 | MIC [19]: 1.56 mg/L (≈ 2.04 µM) | MIC [20]: 1.56 | MIC (Escherichia coli JUHL): 100 | MIC [21]: 1.56 | MIC ([22]; Table 1B): > 64 mg/L | MIC [23]: > 100 mg/L

CC[C@H]1OC(=O)[C@@](C)(F)C(=O)[C@H](C)[C@@H](O[C@@H]2O[C@H](C)C[C@H](N(C)C)[C@H]2O)[C@](C)(OC/C=C/c2cnc3ccc(C(N)=O)cc3c2)C[C@@H](C)C(=O)[C@H](C)[C@H]2NC(=O)O[C@@]21C [Example 15]
MIC ([1]; Table 1B): 4 mg/L (≈ 4.84 µM) | MIC ([2]; Table 1B): 0.1 mg/L (≈ 0.121 µM) | MIC [3]: > 100 mg/L | MIC [4]: 0.05 mg/L (≈ 0.0605 µM) | MIC ([5]; Table 1B): 0.1 mg/L (≈ 0.121 µM) | MIC [6]: 0.05 | MIC [7]: 0.05 | MIC [8]: 0.01 mg/L (≈ 0.0121 µM) | MIC [9]: 0.01 mg/L (≈ 0.0121 µM) | MIC (Candida albicans CCH 442): > 100 mg/L | MIC ([10]; Table 1B): 0.01 mg/L (≈ 0.0121 µM) | MIC [11]: ≤ 0.004 mg/L | MIC (Escherichia coli SS): 0.2 | MIC [12]: 0.05 mg/L (≈ 0.0605 µM) | MIC [13]: 0.01 mg/L (≈ 0.0121 µM) | MIC [14]: 0.05 mg/L (≈ 0.0605 µM) | MIC (Escherichia coli DC-2): 12.5 mg/L (≈ 15.1 µM) | MIC ([15]; Table 1B): ≤ 0.004 mg/L | MIC [16]: 0.05 mg/L (≈ 0.0605 µM) | MIC ([17]; Table 1B): 0.25 mg/L (≈ 0.302 µM) | MIC [18]: 0.39 | MIC [19]: 0.05 mg/L (≈ 0.0605 µM) | MIC [20]: 0.05 | MIC (Escherichia coli JUHL): 25 | MIC [21]: 0.05 | MIC ([22]; Table 1B): 0.5 mg/L (≈ 0.605 µM) | MIC [23]: > 100 mg/L

CC[C@H]1OC(=O)[C@@](C)(F)C(=O)[C@H](C)[C@@H](O[C@@H]2O[C@H](C)C[C@H](N(C)C)[C@H]2O)[C@](C)(OC/C=C/c2ccccc2)C[C@@H](C)C(=O)[C@H](C)[C@H]2NC(=O)O[C@@]21C [Example 7]
MIC ([1]; Table 1B): 2 mg/L (≈ 2.73 µM) | MIC ([1]; Table 1D): 2 mg/L (≈ 2.73 µM) | MIC ([2]; Table 1B): 0.05 mg/L (≈ 0.0682 µM) | MIC ([2]; Table 1D): 0.25 mg/L (≈ 0.341 µM) | MIC [3]: 100 mg/L (≈ 136 µM) | MIC [4]: 0.05 mg/L (≈ 0.0682 µM) | MIC ([5]; Table 1B): 25 mg/L (≈ 34.1 µM) | MIC ([5]; Table 1D): 16 mg/L (≈ 21.8 µM) | MIC [6]: ≤ 0.005 | MIC [7]: 0.02 | MIC [8]: ≤ 0.005 mg/L | MIC [9]: ≤ 0.005 mg/L | MIC (Candida albicans CCH 442): > 100 mg/L | MIC ([10]; Table 1B): ≤ 0.005 mg/L | MIC ([10]; Table 1D): ≤ 0.04 mg/L | MIC [11]: ≤ 0.004 mg/L | MIC (Escherichia coli SS): 0.1 | MIC [12]: 0.05 mg/L (≈ 0.0682 µM) | MIC [13]: ≤ 0.005 mg/L | MIC [14]: 0.02 mg/L (≈ 0.0273 µM) | MIC (Escherichia coli DC-2): 25 mg/L (≈ 34.1 µM) | MIC ([15]; Table 1B): ≤ 0.004 mg/L | MIC ([15]; Table 1D): ≤ 0.04 mg/L | MIC [16]: 0.05 mg/L (≈ 0.0682 µM) | MIC ([17]; Table 1B): 0.25 mg/L (≈ 0.341 µM) | MIC ([17]; Table 1D): 0.25 mg/L (≈ 0.341 µM) | MIC [18]: 0.05 | MIC [19]: 0.05 mg/L (≈ 0.0682 µM) | MIC [20]: 0.05 | MIC (Escherichia coli JUHL): 50 | MIC [21]: 0.05 | MIC ([22]; Table 1B): 64 mg/L (≈ 87.3 µM) | MIC ([22]; Table 1D): 64 mg/L (≈ 87.3 µM) | MIC [23]: 100 mg/L (≈ 136 µM)
